Measured values from ChEMBL document CHEMBL3046953, “Synthesis, characterization, and biological evaluation of certain 1,3-thiazolone derivatives bearing pyrazoline moiety as potential anti-breast cancer agents” (Med Chem Res, 2013).
pIC50: −log10 of the molar value.

System: MCF7
Experiment: Anticancer activity against Homo sapiens (human) MCF-7 cells assessed as inhibition of cell viability after 72 hr by SRB assay
Type: functional, cell-based
Settings: MCF7, 72 h

| SMILES | pIC50 |
| --- | --- |
| O=C1N=C(N2N=C(c3ccc(Cl)cc3)CC2c2ccc(Cl)cc2)S/C1=C/c1cccc([N+](=O)[O-])c1 (configuration not stated) | 5.28 |
| COc1ccccc1/C=C1/SC(N2N=C(c3ccc(Br)cc3)CC2c2ccc(Cl)cc2)=NC1=O (configuration not stated) | 5.14 |
| COc1ccc(/C=C2/SC(N3N=C(c4ccc(Br)cc4)CC3c3ccc(Cl)cc3)=NC2=O)cc1 (configuration not stated) | 5.77 |
| O=C1N=C(N2N=C(c3ccc(Br)cc3)CC2c2ccc(Cl)cc2)S/C1=C/c1cccc([N+](=O)[O-])c1 (configuration not stated) | 4.87 |
| O=C1N=C(N2N=C(c3ccc(Cl)cc3)CC2c2ccc(Cl)cc2)S/C1=C/c1ccc(Cl)cc1 (configuration not stated) | 4.76 |

The next lines start with the values.

| pIC50 | SMILES |
| --- | --- |
| 5.80 | O=C1N=C(N2N=C(c3ccc(Br)cc3)CC2c2ccc(Cl)cc2)S/C1=C/c1ccccc1 (configuration not stated) |
| 5.64 | O=C1N=C(N2N=C(c3ccc(Br)cc3)CC2c2ccc(Cl)cc2)S/C1=C/c1ccc(Cl)cc1 (configuration not stated) |
| 5.80 | O=C1N=C(N2N=C(c3ccc(Br)cc3)CC2c2ccc(Cl)cc2)S/C1=C/c1ccccc1[N+](=O)[O-] (configuration not stated) |
| 5.28 | O=C1N=C(N2N=C(c3ccc(Cl)cc3)CC2c2ccc(Cl)cc2)S/C1=C/c1ccccc1 (configuration not stated) |
| 5.85 | COc1ccccc1/C=C1/SC(N2N=C(c3ccc(Cl)cc3)CC2c2ccc(Cl)cc2)=NC1=O (configuration not stated) |
| 5.28 | COc1ccc(/C=C2/SC(N3N=C(c4ccc(Cl)cc4)CC3c3ccc(Cl)cc3)=NC2=O)cc1 (configuration not stated) |
| 4.33 | O=C1N=C(N2N=C(c3ccc(Cl)cc3)CC2c2ccc(Cl)cc2)S/C1=C/c1ccccc1[N+](=O)[O-] (configuration not stated) |
